Source: patent US20240415791A1, “Therapeutic methods and compositions for treating cancer using devimistat and a fatty acid oxidation inhibitor, a tyrosine kinase inhibitor, a glutaminase inhibitor, and/or a glycolysis inhibitor” (Cornerstone Pharmaceuticals, Inc., priority 2021, published 2024)
Entries after “also recorded” stand apart in the source; their conditions may differ.

What was measured:
Type in all cases: cell-based, human
[1] = test system: H460, PC3 and SW620 cells; experiment: Devimistat cell killing with thioridazine in other cell lines; conditions: 10 μM devimistat, 21 hours treatment, 22 hours recovery
[2] = test system: PANC1 cells; experiment: Devimistat-induced cell death (ATP after recovery) in PANC1 cells; conditions: PANC1, nutrient-free CBS2, treatment followed by recovery in serum-free RPMI
Description: (§1) Cells were plated at 80% confluency in complete RPMI in black, clear bottom 96-well plates or 35-mm dishes for ATP, protein and glycogen analysis, or glass coverslips for fluorescence visualization. To create low nutritional conditions, cells were seeded in complete media, after 24 hours cells were transferred to serum free RPMI for 18-24 hours. Prior to drug treatment, cells were incubated in a nutrient-free carbonate buffered salt solution (CBS2) for 3 hours. Drug treatments were then carried out in CBS2 with addition of nutrient sources and/or chemical agents as described in the Examples and Figures.
(§2) LOGIC: High throughput, plate reader assays for cell death essentially always ultimately depend on metabolic activity of cells to identify viability, directly or indirectly. Thus, strong inhibition of metabolic activity by anti-metabolism agents like those described herein can confound cell death analysis by such assays. […] The inventors thus used a recovery-based assay wherein cells are treated with anti-metabolic agents under conditions where mitochondrial metabolism is (or becomes) limiting on viability. After experimental treatment, drug and media are removed and cells are allowed to recover in serum-free RPMI. RPMI provides high levels of glucose in support of glycolytic ATP generation (independently of mitochondrial function), allowing viable cells to recover ATP levels that are ultimately measured in the plate assay to score cell viability. Under these conditions, cells that are committed to execution of cell death by the experimental treatment score as dead and cells that have not committed to cell death recover ATP levels and score as viable.
Specifically, after exposure to the treatments indicated, cells are allowed to recover ([…]) in RPMI without serum. Survival is assessed by conventional luminescence measurement of ATP levels after this recovery.
TECHNICAL DETAILS: Immediately after drug treatments, acute ATP levels of cells in black, clear bottom 96-well plates were measured using the CellTiter-Glo® Luminescent Cell Viability Assay (catalog #G775B) following Promega (Madison, WI) protocols. To assess cell viability, after drug treatments, drug/agent-containing medium was replaced with serum-free RPMI and cells were incubated for an additional 17-24 hours to allow recovery of viable cells, without additional cell division. After this recovery period ATP levels were measured using the CellTiter-Glo® Luminescent Cell Viability Assay as described above.
A. Exogenous glucose protects from devimistat-induced cell death. Four different cell lines were exposed for 15 hours (PANC1, AsPC1, H460) or 8 hours (PC3) to the indicated range of devimistat doses in the absence of exogenous nutrients (in carbonate buffered balanced salts solution, CBS2) after 3 hours of preincubation in CBS2 (for cell adaptation and to equilibrate soluble nutrient pools). Cells were exposed to the treatments indicated, followed by recovery (24 hours) in RPMI without serum (providing nutrient support for viable cell recovery, without serum factors for cell division). Survival is assessed by conventional luminescence measurement of ATP levels after this recovery. […] The relatively large quantitative differences in devimistat sensitivity between cell lines under exogenous nutrient deprivation are characteristic of each line (see examples below), with small experiment-to-experiment variation. […]

[3] = test system: AsPC1 cells; experiment: CO2 release from 14C-oleic acid in AsPC1 cells; conditions: AsPC1, CBS2, 50 μM GPi, 40 μM oleic acid
[4] = test system: AsPC1 cells; experiment: Glycogen content in AsPC1 cells; conditions: AsPC1, CBS2, 3 hours
Description: Glycogen was quantified using the Glycogen Assay Kit II (colorimetric) from AbCam (ab169558) according to manufacturer's instructions. Briefly, approximately 2×10^6 cells were washed with ice-cold PBS and collected via scraping in 300 μL ice-cold ddH2O. Cells were immediately sonicated on ice for 5× […] pulses with a probe sonicator (Misonix Inc, model XL2000), then heated to 80° C. for 10 min. Samples were stored O/N at −20° C., then thawed, centrifuged at 12,000×g for 10 min and the supernatants collected for glycogen hydrolysis and quantification according to manufacturer's instructions.
C. […] Cells were treated in CBS2 for 3 hours with 30 μM devimistat or mock treated (FIG. 2C, left), or treated for 3 hours with the indicated devimistat doses (FIG. 2C, right).
D. Effects of anti-metabolism agents on glycogen consumption in PANC1 and AsPC1 cells. […] Glycogen content was measured in cell lysates (see Methods, above) and the results are presented in the left and middle graphs in FIG. 3D (note the different vertical scales for PANC1 and AsPC1 plots).

[5] = test system: AsPC1 cells; experiment: Devimistat-induced cell death (ATP after recovery) in AsPC1 cells; conditions: AsPC1, nutrient-free CBS2, treatment followed by recovery in serum-free RPMI
Description: as §1, with “To create low nutritional conditions, cells were seeded in complete media, after 24 hours cells were transferred to serum free RPMI for 18-24 hours.” left out
as §2, with “viability.” for “viability. Under these conditions, cells that are committed to execution of cell death by the experimental treatment score as dead and cells that have not committed to cell death recover ATP levels and score as viable.”
Survival is assessed by conventional luminescence measurement of ATP levels after this recovery.
TECHNICAL DETAILS: Immediately after drug treatments, acute ATP levels of cells in black, clear bottom 96-well plates were measured using the CellTiter-Glo® Luminescent Cell Viability Assay (catalog #G775B) following Promega (Madison, WI) protocols. […] After this recovery period ATP levels were measured using the CellTiter-Glo® Luminescent Cell Viability Assay as described above.
Survival is assessed by conventional luminescence measurement of ATP levels after this recovery. See the Methods section above for a detailed description of this assay and its validation.

[6] = test system: AsPC1 cells; experiment: Acute ATP synthesis rescue by exogenous carbon sources in AsPC1 cells treated with devimistat and GPi; conditions: AsPC1, 50 μM GPi, 60 μM devimistat, 50 μM oleic acid

## CSc1ccc2c(c1)N(CCC1CCCCN1C)c1ccccc1S2 (stereo not drawn) [TZ, 2-methylmercapto-10-[2-(N-methyl-2-piperidyl)ethyl] phenothiazine]
[1]
  enhancement of devimistat cell killing: enhances devimistat cell killing
[2]
  sensitization to devimistat-induced cell death, agent combined with devimistat: Synergy observed
[3]
  oleic acid beta-oxidation (CO2 release from oleate): block oleic acid beta-oxidation
[4]
  glycogen consumption: accelerates glycogen consumption
[5]
  sensitization to devimistat-induced cell death, agent combined with devimistat: Synergy observed; also recorded: enhances devimistat effects
[6]
  inhibition of oleic acid (OA)-driven acute ATP synthesis / OA rescue: strongly inhibited
